Data on three compounds can be found in US10898570B2, “Combination therapy with an anti-HER2 antibody-drug conjugate and a Bcl-2 inhibitor” (Genentech, Inc., priority 2015, dated 2021).

Data set [1] has as its system HER2+ HCC1569 breast cancer cells (T-DM1 naive). As to the kind of experiment: caspase 3/7 activation luminescent in vitro apoptosis assay. Conditions: 24 hours; five concentrations of GDC-0199, 9 concentrations of T-DM1. It is filed as cell-based. As to the method: (§1) In the present experiment, caspase 3/7 activation luminescence assay was performed using the Caspase-Glo® reagent (Promega) essentially following manufacturer's instructions. Assays were performed in the same manner as the viability assays except that drug incubation times were 24 hours and Caspase-Glo 3/7 (Promega) was used to measure apoptosis.
(§2) Caspase 3/7 activation luminescence assay was performed as described in Example 3.

Data set [2] relates to HER2+ MDA-MB-361 breast cancer cells (T-DM1 naive). The data set is described as above. It is filed as cell-based. Conditions: 24 hours; five concentrations of GDC-0199, 9 concentrations of T-DM1. How it is done: as §1, §2
Data set [3] deals with Clone #17 T-DM1 resistant KPL-4 human breast cancer cell line. As to the kind of experiment: caspase 3/7 activation luminescence assay (Caspase-Glo). Conditions: 48 hours; 1 ug/mL T-DM1 alone or with indicated doses of GDC-0199. Type of data set: cell-based. How it is done: (§3) In the present experiment, caspase 3/7 activation luminescence assay was performed using the Caspase-Glo® reagent (Promega) essentially following manufacturer's instructions. […]

The conditions of data set [4]: weekly dosing with 2.4 mg/kg; cited from earlier work.
A further data set deals with Bcl-2. Conditions: T-DM1 1.25 μg/mL; cell lines BT-474, MDA_361 and ZR-75-30.
Another data set has as its system KPL-4 parental cells. As to the kind of experiment: caspase 3/7 activation luminescence assay (Caspase-Glo). Type of data set: cell-based, human. As to the method:
as §3

Data set [5] has as its system T-DM1-resistant KPL-4 (HER2+) breast cancer cells. The data set is described as above. Type of data set: cell-based, human. Conditions: 48 hours; T-DM1 0.1 or 1 μg/mL; GDC-0199 1, 2.5 or 5 μM. How it is done:
as §3

Data set [6] relates to Clone #17 T-DM1 resistant KPL-4 human breast cancer xenografts. As to the kind of experiment: xenograft study, tumor volume. It is filed as in vivo, SCID beige mice. The source says:
For all xenograft studies, three million T-DM1-resistant KPL-4 breast cancer cells were implanted in #2/3 mammary fat pads of female SCID-beige mice. […] The results of these xenograft studies for xenografts of various clones of the T-DM1-resistant KPL-4 breast cancer cells are shown in FIGS. 5B and 6C.

The conditions of data set [7]: cited from earlier work.

Experimental for Bcl-2: Western blot analysis was performed as follows: Cells were lysed in corrected FLAG elution buffer (CFEB) (19.17 mM Tris (pH 7.5), 916.7 μM MgCl2, 92.5 mM NaCl and 0.1% Triton X-100) with protease and phosphatase inhibitors (Roche); in some cases 6 M urea was added. Cleared lysates were quantitated and equal amounts of proteins were reduced, alkylated, separated by SDS-PAGE, and transferred onto PVDF membranes (Invitrogen) following standard procedures. Western blotting was performed as recommended by the respective antibody manufacturers.
The effect of treatment with T-DM1 (1.25 μg/mL) alone or in combination with GDC-0199 (1.25 μM) was studied on various T-DM1 naïve HER2+ breast cancer cell lines.

Consider trastuzumab-MCC-DM1 [T-DM1], for which the “caspase 3/7 activity (apoptosis)” value in data set [1] is “does not induce apoptosis”; in data set [2] it was “caspases 3 and 7 activation”. In addition, the “activation of caspases 3 and 7 (apoptosis)” value in [3] is “minimal effect”; with KPL-4 parental cells (24 hours of drug treatment), “no effect”; with KPL-4 parental cells (48 hours, T-DM1 0.1 or 1 μg/mL, GDC-0199 1, 2.5 or 5 μM) it was “robust activation”; in data set [5], “minimal effect”. Moreover, in [4], the anti-tumor activity result is “anti-tumor activity”. Also, the “phosphorylation of Bcl-2 after treatment (Western blot)” value in the data set with Bcl-2 is listed as “phosphorylation of Bcl-2”. For the same compound, in [6] (T-DM1 5 mg/kg administered once, GDC-0199 100 mg/kg qd×21), the “tumor growth (tumor volume)” value was “no activity”.

Turning to `COc1cc2cc(c1Cl)N(C)C(=O)C[C@H](OC(=O)[C@H](C)N(C)C(C)=O)[C@]1(C)O[C@H]1[C@H](C)[C@@H]1C[C@@](O)(NC(=O)O1)[C@H](OC)/C=C/C=C(\C)C2` [maytansine], in data set [7] (2.0 mg/m2 every 3 weeks, single dose or 3 consecutive days), the “dose-limiting toxicity (DLT)” value was “gastrointestinal”. The “activity in the clinic” value in data set [7] (at doses that could be safely delivered) is listed as “modest”.

On to `CC1(C)CCC(CN2CCN(c3ccc(C(=O)NS(=O)(=O)c4ccc(NCC5CCOCC5)c([N+](=O)[O-])c4)c(Oc4cnc5[nH]ccc5c4)c3)CC2)=C(c2ccc(Cl)cc2)C1` [GDC-0199, 2-(1H-pyrrolo[2,3-b]pyridin-5-yloxy)-4-(4-((2-(4-chlorophenyl)-4,4-dimethylcyclohex-1-enyl)methyl)piperazin-1-yl)-N-(3-nitro-4-((tetrahydro-2H-pyran-4-yl)methylamino)phenylsulfonyl)benzamide], for which the “tumor growth (tumor volume)” value in data set [6] (100 mg/kg) is reported as “no activity”.
